# Measured values: patent US9802918B2, “Pyridineamine compounds useful as Pim kinase inhibitors” (Incyte Corporation, priority 2015, dated 2017)
# Tests used:
# Format in all cases: biochemical
# [1] = biological target: Pim-3 (Homo sapiens (Human), UniProt Q86V86); test: Pim-3 kinase assay; settings: 1 mM ATP; read-out: Pim3 IC50
# Protocol: Pim-1 and Pim-3 kinase assays-20 μL reactions were run in white 384 well polystyrene plates dotted with 0.8 μL compound/DMSO in the assay buffer (50 mM Tris, pH 7.5, 0.01% Tween-20, 5 mM mgCl2, 0.01% BSA, 5 mM DTT), containing […] Biotin-labeled BAD peptide substrate (AnaSpec 62269), 1 mM ATP, and 2.5 pM (Pim-1, Invitrogen PV3503) or 1.25 pM (Pim-3, Millipore 14-738) enzyme for 1 h at 25° C. Reactions were stopped by addition of 10 μL STOP Buffer (150 mM Tris, pH=7.5, 150 mM NaCl, 75 mM EDTA, 0.01% Tween-20, 0.3% BSA,) supplemented with Phospho-Bad (Ser112) Antibody (Cell Signaling 9291) diluted 666-fold, and Streptavidin donor beads (PerkinElmer 6760002) along with Protein-A acceptor beads (PerkinElmer 6760137) at 15 μg/mL each. Supplementation of the STOP buffer with beads and stopping the reactions were done under reduced light. Prior to the stopping reactions STOP buffer with beads was preincubated for 1 h in the dark at room temperature. After stopping the reactions, plates were incubated for 1 h in the dark at room temperature before reading on a PHERAstar FS plate reader (BMG Labtech) under reduced light.
# [2] = biological target: Pim-1 (Homo sapiens (Human), UniProt P11309); test: Pim-1 kinase assay; settings: 1 mM ATP; read-out: Pim1 IC50
# Protocol: Supplementation of the STOP buffer with beads and stopping the reactions were done under reduced light. Prior to the stopping reactions STOP buffer with beads was preincubated for 1 h in the dark at room temperature. After stopping the reactions, plates were incubated for 1 h in the dark at room temperature before reading on a PHERAstar FS plate reader (BMG Labtech) under reduced light.
# [3] = biological target: Pim-2 (Homo sapiens (Human), UniProt Q9P1W9); test: Pim-2 kinase assay; settings: 1 mM ATP; read-out: Pim2 IC50
# Protocol: Pim-2 kinase assay—20 μL reactions were run in white 384 well polystyrene plates dotted with 0.8 μL compound/DMSO in the assay buffer (50 mM Tris, pH 7.5, 0.01% Tween-20, 5 mM mgCl2, 0.01% BSA, 5 mM DTT), containing […] Fluorescein-labeled CREBtide peptide substrate (Invitrogen PV3508), 1 mM ATP, and 1 nM enzyme (Invitrogen PV3649) for 2 h at 25° C. Reactions were stopped by addition of 10 μL TR-FRET Dilution Buffer (Invitrogen PV3574) with 30 mM EDTA and 1.5 nM LanthaScreen Tb-CREB pSer133 antibody (Invitrogen PV3566). After 30 min. incubation at room temperature, plates were read on a PHERAstar FS plate reader (BMG Labtech).
# Chain of Pim-2 (Q9P1W9 whole entry): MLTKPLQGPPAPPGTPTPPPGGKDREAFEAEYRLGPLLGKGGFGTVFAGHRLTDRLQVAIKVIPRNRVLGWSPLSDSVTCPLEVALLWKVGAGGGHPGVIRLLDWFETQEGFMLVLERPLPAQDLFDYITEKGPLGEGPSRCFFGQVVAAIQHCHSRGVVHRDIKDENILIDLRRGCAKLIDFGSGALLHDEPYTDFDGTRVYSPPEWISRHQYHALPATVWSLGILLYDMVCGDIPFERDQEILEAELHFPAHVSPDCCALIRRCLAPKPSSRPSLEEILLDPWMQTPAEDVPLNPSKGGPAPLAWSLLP
# Chain of Pim-1 (P11309 whole entry): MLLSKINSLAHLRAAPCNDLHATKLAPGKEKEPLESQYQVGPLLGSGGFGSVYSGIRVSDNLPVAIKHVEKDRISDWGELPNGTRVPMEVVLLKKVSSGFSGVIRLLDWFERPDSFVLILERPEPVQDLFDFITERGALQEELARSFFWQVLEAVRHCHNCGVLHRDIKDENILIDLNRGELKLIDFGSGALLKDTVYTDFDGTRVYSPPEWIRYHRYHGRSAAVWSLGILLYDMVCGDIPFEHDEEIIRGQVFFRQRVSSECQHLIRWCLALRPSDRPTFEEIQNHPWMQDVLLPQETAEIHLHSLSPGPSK
SMILES,IC50 [1] [nM],IC50 [2] [nM],IC50 [3] [nM]
"C[C@@H]1C[C@H](N)CN(c2c(NCc3ccc(F)c(-c4c(F)cccc4F)n3)cnc3c2CCC3O)C1 (single isomer, unassigned) [Example 87 (Diastereoisomer 1)]",10 to 50,< 10,1000 to 10000
"C[C@@H]1C[C@H](N)CN(c2c(NCc3ccc(F)c(-c4c(F)cccc4F)n3)cnc3c2CC[C@H]3O)C1 (single isomer, unassigned) [Example 87 (Diastereoisomer 2)]",10 to 50,< 10,100 to 1000
"N[C@H]1C[C@@H](C(F)(F)F)CN(c2ccncc2NCc2ccc(F)c(-c3c(F)cc(N4CCOCC4)cc3F)n2)C1 (stereo in doubt) [Example 34, 4-((3S, SR)-3-Amino-5-(trifluoromethyl)piperidin-1-yl)-N-((6-(2,6-difluoro-4-morpholinophenyl)-5-fluoropyridin-2-yl)methyl)pyridin-3-amine]",≤ 10,< 10,≤ 100
"C[C@H]1CN(c2ccncc2NCc2ccc(F)c(-c3c(F)cc(C4(O)CCOC4)cc3F)n2)C[C@@H](N)[C@@H]1O (stereo partly drawn) [Example 1, (3R,4R,5S)-3-Amino-1-{3-[({6-[2,6-difluoro-4-(3-hydroxytetrahydrofuran-3-yl)phenyl]-5-fluoropyridin-2-yl}methyl)amino]pyridin-4-yl}-5-methylpiperidin-4-ol]",≤ 10,< 10,≤ 100
"C[C@H]1CN(c2ccncc2NCc2ccc(F)c(-c3c(F)cc(C4(O)CCC4)cc3F)n2)C[C@@H](N)[C@@H]1O [Example 2, (3R,4R,5S)-3-Amino-1-(3-(((6-(2,6-difluoro-4-(1-hydroxycyclobutyl)phenyl)-5-fluoropyridin-2-yl)methyl)amino)pyridin-4-yl)-5-methylpiperidin-4-ol]",≤ 10,< 10,≤ 100
"C[C@H]1CN(c2ccncc2NCc2ccc(F)c(-c3c(F)cc(C4(O)CCOCC4)cc3F)n2)C[C@@H](N)[C@@H]1O [Example 3, (3R,4R,5S)-3-Amino-1-(3-(((6-(2,6-difluoro-4-(4-hydroxytetrahydro-2H-pyran-4-yl)phenyl)-5-fluoropyridin-2-yl)methyl)amino)pyridin-4-yl)-5-methylpiperidin-4-ol]",≤ 10,< 10,≤ 100
"C[C@@H]1C[C@H](N)CN(c2ccncc2NCc2ccc(F)c(-c3c(F)cc(C4(O)CCOC4)cc3F)n2)C1 (stereo partly drawn) [Example 4, 3-(4-{6-[({4-[(3S,5R)-3-Amino-5-methylpiperidin-1-yl]pyridin-3-yl}amino)methyl]-3-fluoropyridin-2-yl}-3,5-difluorophenyl)tetrahydrofuran-3-ol]",≤ 10,< 10,≤ 100
"C[C@@H]1C[C@H](N)CN(c2ccncc2NCc2ccc(F)c(-c3c(F)cc(C4(O)CCC4)cc3F)n2)C1 [Example 5, 1-(4-(6-((4-((3S,5R)-3-Amino-5-methylpiperidin-1-yl)pyridin-3-ylamino)methyl)-3-fluoropyridin-2-yl)-3,5-difluorophenyl)cyclobutanol]",≤ 10,< 10,≤ 100
"C[C@@H]1C[C@H](N)CN(c2ccncc2NCc2ccc(F)c(-c3c(F)cc(C4(O)CCOCC4)cc3F)n2)C1 [Example 6, 4-(4-(6-((4-((3S,5R)-3-Amino-5-methylpiperidin-1-yl)pyridin-3-ylamino)methyl)-3-fluoropyridin-2-yl)-3,5-difluorophenyl)tetrahydro-2H-pyran-4-ol]",≤ 10,< 10,≤ 100
"N[C@H]1C[C@@H](C(F)(F)F)CN(c2ccncc2NCc2ccc(F)c(-c3c(F)cc(C4(O)CCC4)cc3F)n2)C1 [Example 7, 1-(4-{6-[({4-[(3S,5R)-3-Amino-5-(trifluoromethyl)piperidin-1-yl]pyridin-3-yl}amino)methyl]-3-fluoropyridin-2-yl}-3,5-difluorophenyl)cyclobutanol]",≤ 10,< 10,≤ 100
"C[C@H]1CN(c2ccncc2NCc2ccc(F)c(-c3c(F)cc(C4(O)CC4)cc3F)n2)C[C@@H](N)[C@@H]1O [Example 8, (3R,4R,5S)-3-Amino-1-{3-[({6-[2,6-difluoro-4-(1-hydroxycyclopropyl)phenyl]-5-fluoropyridin-2-yl}methyl)amino]pyridin-4-yl}-5-methylpiperidin-4-ol]",≤ 10,< 10,100 to 1000
"C[C@H]1CN(c2ccncc2NCc2ccc(F)c(-c3c(F)ccc(C4(O)CC4)c3F)n2)C[C@@H](N)[C@@H]1O [Example 9, (3R,4R,5S)-3-Amino-1-(3-(((6-(2,6-difluoro-3-(1-hydroxycyclopropyl)phenyl)-5-fluoropyridin-2-yl)methyl)amino)pyridin-4-yl)-5-methylpiperidin-4-ol]",≤ 10,< 10,100 to 1000
"C[C@@H]1C[C@H](N)CN(c2ccncc2NCc2ccc(F)c(-c3c(F)cc(C4(O)CC4)cc3F)n2)C1 [Example 10, 1-(4-{6-[({4-[(3S,5R)-3-Amino-5-methylpiperidin-1-yl]pyridin-3-yl}amino)methyl]-3-fluoropyridin-2-yl}-3,5-difluorophenyl)cyclopropanol]",≤ 10,< 10,≤ 100
"C[C@@H]1C[C@H](N)CN(c2ccncc2NCc2ccc(F)c(-c3c(F)ccc(C4(O)CC4)c3F)n2)C1 [Example 11, 1-(3-(6-((4-((3S,5R)-3-Amino-5-methylpiperidin-1-yl)pyridin-3-ylamino)methyl)-3-fluoropyridin-2-yl)-2,4-difluorophenyl)cyclopropanol]",≤ 10,< 10,100 to 1000
"C[C@H]1CN(c2ccncc2NCc2ccc(F)c(-c3c(F)cc(CC(C)(C)O)cc3F)n2)C[C@@H](N)[C@@H]1O [Example 12, (3R,4R,5S)-3-Amino-1-{3-[({6-[2,6-difluoro-4-(2-hydroxy-2-methylpropyl)phenyl]-5-fluoropyridin-2-yl}methyl)amino]pyridin-4-yl}-5-methylpiperidin-4-ol]",≤ 10,< 10,≤ 100
"C[C@@H]1C[C@H](N)CN(c2ccncc2NCc2ccc(F)c(-c3c(F)cc(CC(C)(C)O)cc3F)n2)C1 [Example 13, 1-(4-{6-[({4-[(3S,5R)-3-Amino-5-methylpiperidin-1-yl]pyridin-3-yl}amino)methyl]-3-fluoropyridin-2-yl}-3,5-difluorophenyl)-2-methylpropan-2-ol]",≤ 10,< 10,≤ 100
"C[C@H]1CN(c2ccncc2NCc2ccc(F)c(-c3c(F)cccc3F)n2)C[C@@H](N)[C@@H]1O [Example 14, (3R,4R,5S)-3-Amino-1-[3-({[6-(2,6-difluorophenyl)-5-fluoropyridin-2-yl]methyl}amino)pyridin-4-yl]-5-methylpiperidin-4-ol]",≤ 10,< 10,≤ 100
"COc1cccc(F)c1-c1nc(CNc2cnccc2N2C[C@@H](N)[C@H](O)[C@@H](C)C2)ccc1F [Example 15, (3R,4R,5S)-3-Amino-1-(3-(((5-fluoro-6-(2-fluoro-6-methoxyphenyl)pyridin-2-yl)methyl)amino)pyridin-4-yl)-5-methylpiperidin-4-ol]",≤ 10,< 10,100 to 1000
"C[C@H]1CN(c2ccncc2NCc2ccc(F)c(-c3c(F)cncc3F)n2)C[C@@H](N)[C@@H]1O [Example 16, (3R,4R,5S)-3-Amino-5-methyl-1-(3-(((3,3′,5′-trifluoro-[2,4′-bipyridin]-6-yl)methyl)amino)pyridin-4-yl)piperidin-4-ol]",≤ 10,< 10,100 to 1000
"C[C@H]1CN(c2ccncc2NCc2ccc(F)c(-c3c(F)cccc3C#N)n2)C[C@@H](N)[C@@H]1O [Example 17, 2-(6-((4-((3R,4R,5S)-3-Amino-4-hydroxy-5-methylpiperidin-1-yl)pyridin-3-ylamino)methyl)-3-fluoropyridin-2-yl)-3-fluorobenzonitrile]",≤ 10,< 10,100 to 1000
"C[C@H]1CN(c2ccncc2NCc2ccc(F)c(-c3ccccc3F)n2)C[C@@H](N)[C@@H]1O [Example 18, (3R,4R,5S)-3-Amino-1-(3-(((5-fluoro-6-(2-fluorophenyl)pyridin-2-yl)methyl)amino)pyridin-4-yl)-5-methylpiperidin-4-ol]",≤ 10,< 10,100 to 1000
